Data reported in patent US20240261274A1, “TREATMENT OF MYC-DRIVEN CANCERS WITH GSPT1 DEGRADERS” (MONTE ROSA THERAPEUTICS, INC., priority 2021, published 2024).

Tests used:
[1] = tested on: cells for which cereblon was knocked out; assay: Viability in cereblon knock-out cells; format: cell-based
From the text: X-axis axis represents m concentration of compound 8; y-axis represents viability normalized to DMSO.

GSPT1 [2] = molecular target: T1, GSPT1 (Homo sapiens, UniProt P15170+Q96SW2); assay: GSPT1 levels in breast cancer tumors after compound 8 (western blotting); format: in vivo; design: endogenous in cells; settings: three consecutive doses at 37 and 75 mpk; tumors harvested 24 hr post third dose; MDA-MB-468, MDA-MB-231, MDA-MB-436, CAL51
T1 sequence (P15170 whole entry): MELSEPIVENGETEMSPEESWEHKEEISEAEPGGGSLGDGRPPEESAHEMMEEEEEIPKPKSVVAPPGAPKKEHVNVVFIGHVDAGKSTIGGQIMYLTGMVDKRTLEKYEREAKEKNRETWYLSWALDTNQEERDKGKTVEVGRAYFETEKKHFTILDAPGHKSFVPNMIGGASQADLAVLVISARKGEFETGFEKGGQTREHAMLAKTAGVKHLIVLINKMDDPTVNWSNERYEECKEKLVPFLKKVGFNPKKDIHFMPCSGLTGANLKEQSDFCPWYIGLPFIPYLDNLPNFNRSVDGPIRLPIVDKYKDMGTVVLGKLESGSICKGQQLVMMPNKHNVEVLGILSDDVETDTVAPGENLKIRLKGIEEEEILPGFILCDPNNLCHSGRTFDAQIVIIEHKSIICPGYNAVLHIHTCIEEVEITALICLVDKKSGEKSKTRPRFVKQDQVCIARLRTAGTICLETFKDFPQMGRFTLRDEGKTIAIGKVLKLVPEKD
T1 sequence (Q96SW2 whole entry): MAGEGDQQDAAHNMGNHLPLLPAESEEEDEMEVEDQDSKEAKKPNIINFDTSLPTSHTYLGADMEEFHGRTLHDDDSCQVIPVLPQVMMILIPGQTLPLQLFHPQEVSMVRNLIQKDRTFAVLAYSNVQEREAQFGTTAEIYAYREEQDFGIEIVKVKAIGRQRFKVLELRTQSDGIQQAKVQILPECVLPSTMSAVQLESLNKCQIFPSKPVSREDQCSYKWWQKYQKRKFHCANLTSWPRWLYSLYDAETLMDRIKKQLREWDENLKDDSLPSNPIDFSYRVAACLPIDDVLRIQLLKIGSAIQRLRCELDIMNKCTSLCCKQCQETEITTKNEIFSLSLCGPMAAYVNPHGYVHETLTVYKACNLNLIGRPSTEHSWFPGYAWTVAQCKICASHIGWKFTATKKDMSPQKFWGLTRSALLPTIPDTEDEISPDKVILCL
T1 sequence (Q16531 whole entry partner): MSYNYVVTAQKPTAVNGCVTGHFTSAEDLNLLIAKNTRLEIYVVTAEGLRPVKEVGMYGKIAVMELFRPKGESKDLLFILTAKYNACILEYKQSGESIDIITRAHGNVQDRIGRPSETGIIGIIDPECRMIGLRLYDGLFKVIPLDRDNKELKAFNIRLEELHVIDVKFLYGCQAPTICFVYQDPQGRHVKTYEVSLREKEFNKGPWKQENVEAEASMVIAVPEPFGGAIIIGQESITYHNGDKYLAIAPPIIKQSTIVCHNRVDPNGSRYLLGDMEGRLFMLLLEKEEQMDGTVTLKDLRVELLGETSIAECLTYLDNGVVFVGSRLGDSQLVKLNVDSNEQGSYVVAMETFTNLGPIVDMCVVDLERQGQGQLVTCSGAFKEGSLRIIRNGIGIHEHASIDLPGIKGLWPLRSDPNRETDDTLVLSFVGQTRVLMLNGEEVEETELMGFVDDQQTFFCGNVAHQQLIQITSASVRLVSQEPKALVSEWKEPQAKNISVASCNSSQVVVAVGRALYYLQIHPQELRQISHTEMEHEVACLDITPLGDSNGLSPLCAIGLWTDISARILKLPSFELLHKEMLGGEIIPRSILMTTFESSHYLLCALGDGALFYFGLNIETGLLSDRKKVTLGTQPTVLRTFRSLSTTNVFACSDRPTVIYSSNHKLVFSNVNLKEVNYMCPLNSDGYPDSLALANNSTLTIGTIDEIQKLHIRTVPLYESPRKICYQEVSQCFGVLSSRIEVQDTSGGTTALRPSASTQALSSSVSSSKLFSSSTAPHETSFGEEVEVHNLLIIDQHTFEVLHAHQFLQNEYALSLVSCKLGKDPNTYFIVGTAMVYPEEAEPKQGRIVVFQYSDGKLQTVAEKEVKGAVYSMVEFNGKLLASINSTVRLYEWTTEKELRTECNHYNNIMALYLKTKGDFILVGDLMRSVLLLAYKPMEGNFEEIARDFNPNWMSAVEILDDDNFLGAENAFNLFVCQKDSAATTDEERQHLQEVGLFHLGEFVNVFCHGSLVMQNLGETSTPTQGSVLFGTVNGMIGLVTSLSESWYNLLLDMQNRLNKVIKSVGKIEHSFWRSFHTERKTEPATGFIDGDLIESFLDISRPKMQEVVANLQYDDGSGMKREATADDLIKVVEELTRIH
Procedure: Representative examples below show the levels of GSPT1 in MDA-MB-468 (ATCC HTB-132), MDA-MB-231 (ATCC HTB-26), MDA-MB-436 (ATCC HTB-130) and CAL51 (DSMZ-ACC-302) tumors (in lanes from top down as indicated) following three consecutive doses of compound 8 at 37 (right panel) and 75 mpk (middle panel) or administration of vehicle only (left panel). GADPH levels as control is shown in the lowest lane. Tumors were harvested 24 hr post third dose and levels of GSPT1 were determined by western blotting as indicated. Tumors were collected from the in vivo efficacy studies described in the previous FIG. 7A.

NSCLC cell lines = assay: Viability assay, 72 hr CellTiter Glo, NSCLC cell line panel (Compound 345); format: cell-based; settings: panel of NSCLC cell lines
Procedure: EC50 scores for Compound 345 were measured in a panel of NSCLC cell lines. Each cell line was scored for NSCLC biomarkers and EC50 values were plotted against NSCLC biomarker score. Results of this experiment are shown in the scatter plot of FIG. 11A. High N-Myc expressing cell lines were enriched in the lower right quadrant of the scatterplot, indicating high NSCLC biomarker scores and high sensitivity to Compound 345.
Viability assay: Compound 345 was tested in a panel of 156 lung cancer cell lines (including non small cell lung cancer (NSCLC) and small cell lung cancer (SCLC) cell lines and 46 lymphoma cell lines using a 72 hr CellTiter Glo assay format. Cells were sub-cultured as recommended by the providers (ATCC, DSMZ) and incubated at 37° C., 5% CO2. All cells were authenticated and confirmed by Short Tandem Repeat (STR) profiling. Briefly, each lung cancer cell line was preferentially seeded in 384-well plates (100 μL/well) at a density previously determined to be in log growth phase 72 hour post-seeding (typically in the 400-2400 cells/well range). […] Cell viability was assessed using the CellTiter-Glo® 2.0 Assay as recommended by the Manufacturer (Promega, Cat. No. G7558, Lot. No. 0000385738) and measurements performed on the EnSpire multimode plate reader (Perkin Elmer). […]

GSPT1 [3] = molecular target: T1, GSPT1; assay: GSPT1 levels in NCI-H1155 tumors (Compound 345); format: in vivo, mice; design: from tissue; host or cells: NCI-H1155 subcutaneous xenograft tumours from BALB/c nude mice; settings: day 5, 1 mg/kg and 10 mg/kg, strongest effect at 10 mg/kg
Procedure: Additionally, plasma concentrations of Compound 345 and levels of GSPT1 and […] (relative to vehicle-only control) were measured in a time-course experiment on day 5 for the animals receiving 1 mg/kg and 10 mg/kg.
GSPT1 and N-Myc western blotting analyses from NCI-H1155 tumors: The NCI-H1155 model was run as described previously and tumors were harvested following 5 consecutive daily PO doses of Compound 345 at 1.0 and 10 mg/kg. Tumors were lysed in 1× lysis buffer (CST, Cat. No. 9803, Lot No. 0000122383) supplemented with protease (Sigma, Cat. No. P8340) and phosphatase ((Sigma, Cat. No. P5726 and P0044) cocktail inhibitors using TissueLyser II (QIAGEN #85300). Samples were spined at 15,000 rpm in an Eppendorf microfuge for 15 min at 4° C. The protein supernatant was collected in a new 1.5 ml tube and the protein concentrations were determined by the Pierce BCA kit (Thermo, Cat. No. 23225). The tumor lysate samples were mixed with 5×SDS-PAGE loading buffer boiled for 5 min and brought to ice for 5 min. 30 μg of protein was loaded onto a NUPAGE 4-12% BT gel (Invitrogen, Cat. No. NPO336BOX) for separation. […] Membranes were imaged on the Odyssey imager (Li-COR) using fluorescence or cheminulinescence detection. […] Data are expressed as mean±SEM derived from at least three different mice and collected at 0, 2, 6, 12, 24, 48, 72 and 96 hr as indicated.

| Structure (SMILES) | induction of death (viability normalized to DMSO) [1] | GSPT1 levels in tumors (GSPT1 [2]) | cell viability in Myc-driven and non-Myc-driven NSCLC (NSCLC cell lines) | GSPT1 level relative to vehicle-only control (GSPT1 [3]) |
| --- | --- | --- | --- | --- |
| Cc1ccc(NC(=O)NCc2ccc3c(c2)C(=O)N(C2CCC(=O)NC2=O)C3)cc1Cl (stereo not shown) [Compound 8] | did not induce death | robust and dose-dependent degradation of GSPT1 levels in tumors |  |  |
| O=C1CCC(N2Cc3ccc(COC(=O)Nc4cc(OC(F)(F)F)ccc4F)cc3C2=O)C(=O)N1 (stereo not shown) [Compound 345, (2-(2,6-dioxopiperidin-3-yl)-3-oxoisoindolin-5-yl)methyl(2-fluoro-5-(trifluoromethoxy)phenyl)carbamate] |  |  | cell viability was significantly reduced in only Myc-driven NSCLC | substantially reduced |
